Tests used:
[1] = target: Beta-lactamase VIM-2 (Pseudomonas aeruginosa) (UniProt Q9K2N0); test: Inhibition of beta-lactamase VIM-2 in Pseudomonas aeruginosa assessed as potentiation of meropenem-induced antibacterial activity by measuring meropenem MIC at 125 uM after 20 hrs by broth microdilution assay (meropenem alone = 32 to 64 mg/L)
[2] = target: Metallo-beta-lactamase type 2 (Klebsiella pneumoniae) (UniProt C7C422); test: Inhibition of NDM1 in Pseudomonas aeruginosa assessed as potentiation of meropenem-induced antibacterial activity by measuring meropenem MIC at 125 uM after 20 hrs by broth microdilution assay (meropenem alone = 32 to 64 mg/L)
MDA-MB-231 = test: Cytotoxicity against human MDA-MB-231 cells after 72 hrs by MTT assay; type: cell-based; settings: MDA-MB-231, 72 h
[3] = Cytotoxicity against human MiaPaCa cells after 72 hrs by MTT assay; type: cell-based; settings: MIA PaCa-2, 72 h
COLO357 = test: Cytotoxicity against human Colo-357 cells after 72 hrs by MTT assay; type: cell-based; settings: COLO357, 72 h
[4] = Binding affinity to zinc assessed as dissociation constant for compound-metal complex
[5] = target: Beta-lactamase VIM-2 (Pseudomonas aeruginosa) (UniProt Q9K2N0); test: Inhibition of beta-lactamase VIM-2 in Pseudomonas aeruginosa assessed as potentiation of meropenem-induced antibacterial activity by measuring meropenem MIC at 31 uM after 20 hrs by broth microdilution assay (meropenem alone = 32 to 64 mg/L)
[6] = target: Beta-lactamase VIM-2 (Pseudomonas aeruginosa) (UniProt Q9K2N0); test: Inhibition of beta-lactamase VIM-2 in Pseudomonas aeruginosa assessed as potentiation of meropenem-induced antibacterial activity by measuring meropenem MIC at 16 uM after 20 hrs by broth microdilution assay (meropenem alone = 32 to 64 mg/L)
[7] = target: Metallo-beta-lactamase type 2 (Klebsiella pneumoniae) (UniProt C7C422); test: Inhibition of NDM1 in Pseudomonas aeruginosa assessed as potentiation of meropenem-induced antibacterial activity by measuring meropenem MIC at 31 uM after 20 hrs by broth microdilution assay (meropenem alone = 32 to 64 mg/L)
[8] = target: Metallo-beta-lactamase type 2 (Klebsiella pneumoniae) (UniProt C7C422); test: Inhibition of NDM1 in Pseudomonas aeruginosa assessed as potentiation of meropenem-induced antibacterial activity by measuring meropenem MIC at 16 uM after 20 hrs by broth microdilution assay (meropenem alone = 32 to 64 mg/L)
HepG2 = test: Cytotoxicity against human HepG2 cells after 72 hrs by MTT assay; type: cell-based; settings: HepG2, 72 h
[9] = target: Beta-lactamase VIM-2 (Pseudomonas aeruginosa) (UniProt Q9K2N0); test: Inhibition of beta-lactamase VIM-2 in Pseudomonas aeruginosa assessed as potentiation of meropenem-induced antibacterial activity by measuring meropenem MIC at 50 uM after 20 hrs by broth microdilution assay (meropenem alone = 32 to 64 mg/L)
[10] = target: Metallo-beta-lactamase type 2 (Klebsiella pneumoniae) (UniProt C7C422); test: Inhibition of NDM1 in Pseudomonas aeruginosa assessed as potentiation of meropenem-induced antibacterial activity by measuring meropenem MIC at 50 uM after 20 hrs by broth microdilution assay (meropenem alone = 32 to 64 mg/L)

Metallo-beta-lactamase type 2 (Klebsiella pneumoniae), sequence (C7C422 whole entry): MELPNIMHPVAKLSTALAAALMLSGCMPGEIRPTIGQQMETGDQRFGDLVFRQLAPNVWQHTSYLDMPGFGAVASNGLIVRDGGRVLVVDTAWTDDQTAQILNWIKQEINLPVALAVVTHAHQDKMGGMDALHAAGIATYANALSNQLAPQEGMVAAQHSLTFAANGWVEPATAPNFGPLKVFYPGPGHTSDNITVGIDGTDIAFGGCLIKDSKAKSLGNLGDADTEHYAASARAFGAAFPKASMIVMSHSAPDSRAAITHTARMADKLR

Compound	MIC [1] [µg/mL]	MIC [2] [µg/mL]	pKd [4]	MIC [5] [µg/mL]	MIC [6] [µg/mL]	MIC [7] [µg/mL]	MIC [8] [µg/mL]	MIC [9] [µg/mL]	MIC [10] [µg/mL]	IC50 (MDA-MB-231) [µM]	IC50 [3] [µM]	IC50 (COLO357) [µM]	IC50 (HepG2) [µM]
C[C@@H](N)C(=O)N[C@H](C)C(=O)NCCc1ccc(NC(=O)CN(Cc2ccccn2)Cc2ccccn2)cc1.Cl	16	8	7.6	–	–	–	–	–	–	127	118	21	–
CN(CCN(Cc1ccccn1)Cc1ccccn1)CC(=O)N(C)C[C@H](O)[C@@H](O)[C@H](O)[C@H](O)CO	–	–	–	1	32	0.25	32	–	–	–	–	–	118
C[C@@H](N)C(=O)N[C@H](C)C(=O)NCCc1ccc(NC(=O)CN(CCN(Cc2ccccn2)Cc2ccccn2)Cc2ccccn2)cc1.Cl	2	0.125	12.3	2	32	0.125	8	–	–	4.9	4.8	6.8	13.6
C[C@@H](N)C(=O)N[C@H](C)C(=O)NCCc1ccc(-n2cc(CN(Cc3ccccn3)Cc3ccccn3)nn2)cc1	–	–	–	–	–	–	–	4	4	–	–	–	–
c1ccc(CNCCN(Cc2ccccn2)Cc2ccccn2)nc1	0.5	< 0.25	–	1	32	0.125	8	–	–	–	–	–	–
COC(=O)[C@@H](C)NC(=O)[C@@H](C)NC(=O)CN(C)CCN(Cc1ccccn1)Cc1ccccn1	–	–	11.8	1 to 2	32	0.125	16	1	0.125	4.5	5.1	4.3	6.83
COC(=O)[C@@H](C)NC(=O)[C@@H](C)NC(=O)Cc1ccc(-n2cc(CN(Cc3ccccn3)Cc3ccccn3)nn2)cc1	–	–	8.9	–	–	–	–	8	4	125	119	105	–
COC(=O)CNC(=O)CNC(=O)Cc1ccc(NC(=O)CN(CCN(Cc2ccccn2)Cc2ccccn2)Cc2ccccn2)cc1	1	0.125	12.3	2	32	2	16	–	–	7.8	12	12	–
NCC(=O)NCC(=O)NCCc1ccc(-n2cc(CN(Cc3ccccn3)Cc3ccccn3)nn2)cc1	–	–	–	–	–	–	–	8	4	–	–	–	–
COC(=O)[C@@H](C)NC(=O)[C@@H](C)NC(=O)CN(Cc1ccccn1)Cc1ccccn1	16	8 to 16	7.6	–	–	–	–	–	–	184	98	90	–
COC(=O)[C@H](C)NC(=O)[C@H](C)NC(=O)Cc1ccc(NC(=O)CN(CCN(Cc2ccccn2)Cc2ccccn2)Cc2ccccn2)cc1	1	0.125	–	1	32	0.125	8	–	–	–	–	–	–
COC(=O)CNC(=O)CNC(=O)Cc1ccc(-n2cc(CN(Cc3ccccn3)Cc3ccccn3)nn2)cc1	–	–	–	–	–	–	–	8	4	–	–	–	–
OC1O[C@H](Cn2cc(CN(CCN(Cc3ccccn3)Cc3ccccn3)Cc3ccccn3)nn2)[C@H](O)[C@H](O)[C@H]1O (some centres undefined)	–	–	–	2	32	0.125	8	–	–	–	–	–	1.7
COC(=O)[C@@H](C)NC(=O)[C@@H](C)NC(=O)CCC(=O)NCCc1ccc(NC(=O)CN(Cc2ccccn2)Cc2ccccn2)cc1	32	8 to 16	7.6	–	–	–	–	–	–	141	45	152	–
C[C@H](N)C(=O)N[C@@H](C)C(=O)NCCc1ccc(NC(=O)CN(CCN(Cc2ccccn2)Cc2ccccn2)Cc2ccccn2)cc1.Cl	2	0.125	12.3	4	32	0.125	16	–	–	5.1	5.5	6.8	–
CCOC(=O)Cc1ccc(-n2cc(CN(Cc3ccccn3)Cc3ccccn3)nn2)cc1	–	–	–	–	–	–	–	16	4	–	–	–	–
Cl.NCC(=O)NCC(=O)NCCc1ccc(NC(=O)CN(CCN(Cc2ccccn2)Cc2ccccn2)Cc2ccccn2)cc1	–	–	12.3	–	–	–	–	–	–	15	21	24	–
COC(=O)[C@@H](C)NC(=O)[C@@H](C)NC(=O)Cc1ccc(NC(=O)CN(CCN(Cc2ccccn2)Cc2ccccn2)Cc2ccccn2)cc1	1	0.125	12.3	4	32	0.125	16	–	–	4.1	5.9	5.4	–

The next lines start with results.

MIC [1] [µg/mL]	MIC [2] [µg/mL]	pKd [4]	MIC [5] [µg/mL]	MIC [6] [µg/mL]	MIC [7] [µg/mL]	MIC [8] [µg/mL]	MIC [9] [µg/mL]	MIC [10] [µg/mL]	Compound	IC50 (MDA-MB-231) [µM]	IC50 [3] [µM]	IC50 (COLO357) [µM]	IC50 (HepG2) [µM]
4	1	8.9	–	–	–	–	–	–	COC(=O)[C@@H](CCCCn1cc(CN(Cc2ccccn2)Cc2ccccn2)nn1)NC(=O)[C@@H](C)NC(C)=O	131	128	101	–
8	2	8.9	16	32	8	16	–	–	COC(=O)[C@H](C)NC(=O)[C@H](C)NC(=O)Cn1cc(CN(Cc2ccccn2)Cc2ccccn2)nn1	157	105	96	–
–	–	–	–	–	–	–	16	8	COC(=O)[C@@H](C)NC(=O)[C@H](CCCCNC(=O)Cn1cc(CN(Cc2ccccn2)Cc2ccccn2)nn1)NC(C)=O	–	–	–	–
2	0.5	8.9	32	32	8	16	–	–	CC(=O)N[C@@H](CCCCNC(=O)Cn1cc(CN(Cc2ccccn2)Cc2ccccn2)nn1)C(=O)NCB(O)O	128	119	82	–
–	–	–	–	–	–	–	32	8	COC(=O)CNC(=O)[C@H](CCCCNC(C)=O)NC(=O)Cn1cc(CN(Cc2ccccn2)Cc2ccccn2)nn1	–	–	–	–
–	–	8.9	–	–	–	–	–	–	COC(=O)[C@@H](CCCCNC(=O)Cn1cc(CN(Cc2ccccn2)Cc2ccccn2)nn1)NC(=O)[C@@H](C)N	127	106	114	–
–	–	–	–	–	–	–	16	4	COC(=O)CNC(=O)[C@H](CCCCNC(=O)Cn1cc(CN(Cc2ccccn2)Cc2ccccn2)nn1)NC(C)=O	–	–	–	–
4	2	8.9	–	–	–	–	–	–	COC(=O)CNC(=O)CNC(=O)Cn1cc(CN(Cc2ccccn2)Cc2ccccn2)nn1	168	176	137	–
–	–	–	–	–	–	–	32	8	COC(=O)[C@@H](C)NC(=O)[C@H](CCCCNC(C)=O)NC(=O)Cn1cc(CN(Cc2ccccn2)Cc2ccccn2)nn1	–	–	–	–
2	0.5	8.9	16	32	8	16	–	–	CC(=O)NCCCC[C@H](NC(=O)Cn1cc(CN(Cc2ccccn2)Cc2ccccn2)nn1)C(=O)NCB(O)O	101	66	112	–
2	< 0.5	8.9	64	32	16	32	–	–	COC(=O)[C@@H](C)NC(=O)[C@@H](C)NC(=O)Cn1cc(CN(Cc2ccccn2)Cc2ccccn2)nn1	152	116	133	–

— ChEMBL document CHEMBL4480377, “Synthesis and biological evaluation of zinc chelating compounds as metallo-β-lactamase inhibitors” (Medchemcomm, 2019)
